Measurements as given in patent publication US20260365684A1, “PHYTOSPHINGOSINE-3,4-CYCLICPHOSPHATE COMPOUND AND PHARMACEUTICAL COMPOSITION COMPRISING THE SAME” (AXCESO BIOPHARMA CO., LTD., priority 2022, published 2026).

Key:
[1] = system: amyloid beta monomer (monomeric Aβ, mAβ); assay: Expression of mAβ in brain of AD-induced animal model by fluorescence microscopy; type: in vivo; conditions: mouse brain, 1 mg/kg i.p. once every 3 days for 2 weeks, FIG. 3
Procedure: To determine the therapeutic effect on Alzheimer's Disease (AD), the effects on amyloid beta monomer (monomeric Aβ, mAβ) and Tau protein, which are biomarkers of AD, were analyzed in an AD-induced animal model.
APP/PS/Tau transgenic mice were used as an AD-induced animal model. The compound of formula (1a-1) was administered intraperitoneally once every 3 days at a concentration of 1 mg/kg to 12-week-old transgenic mice for 2 weeks, and the expression of mAβ and Tau proteins in the mouse brain was measured after 1 and 4 weeks. After anesthetizing the mouse, the cervical region was incised with a dissecting tool, and then the occipital region was incised to remove both sides of the skull. The brain was washed with phosphate buffered saline (PBS) and fixed with 4% paraformaldehyde (Sigma, St Louis, MO, USA) for 12 hours at 4 °C. These were cut to a thickness of approximately 10 μm using a vibratome, and hippocampus and cortex sections were collected and placed in 24 wells. PBS was added to the wells containing the fixed tissue sections, and fluorescent nanoparticles (QD565, red fluorescence) conjugated with anti-amyloid antibodies and anti-Tau antibodies (Santa Cruz, USA) were added to each 2 μM, and reacted at 4 °C for 12 hours. The expression of mAβ and Tau was confirmed by fluorescence microscopy.

SH-SY5Y cell lines = assay: Proliferation of neurons (SH-SY5Y, Parkinson's disease cell model), EZ-cytox; type: cell-based, human; conditions: 5 days, FIG. 4
Procedure: A medium containing DMEM/F12 (Hyclone), 10% FBS (Hyclone), and 1% penicillin-streptomycin (Hyclone) was used, and the medium was replaced every two days after seeding on a T75 plate. Subculture was performed when the cell density was 80-90%.
Then, to determine the neuronal proliferation effect, the subcultured SH-SY5Y cells were seeded in 96 wells at 5×10^3 cells/well. After 1 day, the medium was replaced with a 5% FBS ratio, and the cells were treated with the compound of formula (1a-1) at concentrations serially diluted 2-fold from 500 nM to 15.6 nM and cultured for 5 days. The medium was replaced with 10% FBS containing the drug every other day. The culture medium with 10% FBS was used as a control. After 5 days, the amount of living cells was measured at 450 nm absorbance using EZ-cytox (DoGen) to compare the cell viability.

C57BL/6 mice = assay: Survival in sepsis induced by cecal ligation and puncture (CLP); type: in vivo, mouse; conditions: 100 ng/mouse (5 μg/kg) i.v. at 6 and 16 hours after CLP; FIG. 7
Procedure: C57BL/6 mice aged 7-8 weeks were purchased from Jabio (Suwon, Gyeonggi-do) and sepsis was induced by cecal ligation and puncture (CLP).
Specifically, after anesthesia using 150 mg/kg of ketamine and 17.5 mg/kg of rompun, an abdominal incision of 1-2 cm was made to expose the cecum to induce sepsis. The cecum was ligated with 6-0 silk sutures at the distal end of the ileocecal valve, and a puncture was made with an 18-gauge needle. The perforated cecum was gently squeezed to push out 1-2 cm of feces, and the cecum was then retracted back into the abdominal cavity. The abdomen was then closed and pre-warmed normal saline (2.5 mL/100 g body weight) was injected into the mouse abdominal cavity immediately after the procedure. 6 and 16 hours after CLP treatment, the compound of formula (1a-1) was dissolved in phosphate buffered saline (PBS) and injected intravenously at 100 ng/mouse (5 μg/kg), and survival was examined for 10 days. […] In addition, as a drug-negative control, survival was examined in mice that received only PBS after CLP treatment.
For comparison, we also examined the survival of a control group treated with fingolimod (FTY720), a known S1P modulator, instead of the compound of formula (1a-1) under the same conditions.

SIRT1 = SIRT1 expression in HUVECs by western blot; type: cell-based, human
Procedure: To determine the increase in SIRT1 expression by the compound of formula (1a-1) prepared in Example 1 above in human umbilical vein endothelial cells (HUVECs), HUVECs were seeded at 5×10^5/4 ml in a 60 mm cell culture dish using ECBM2 medium (Promocell) and stabilized for 12 hours in an incubator maintained at 37 °C and 5% CO2, respectively.
The cells were then treated with 10 nM, 100 nM and 1000 nM of the compound of formula (1a-1) prepared in Example 1 above, respectively, and incubated for another 24 hours, and then SIRT1 expression was determined by western blot.

[2] = system: MYSEC (murine yolk sac endothelial cell) cell lines; assay: In vitro permeability of MYSEC cell line (LPS, trans well, HRP); type: cell-based; conditions: FIG. 11A
Procedure: Permeability was measured by an in vitro method using cell culture and in vivo method using Evans blue dye. To increase permeability, LPS was used in the in vitro method and CLP treatment was used in the in vivo method.
To measure permeability by an in vitro method, MYSEC (murine yolk sac endothelial cell) cell lines were used. MYSEC cell lines were placed in the top chamber of a trans well at 2.5×10^5 cells/well and treated with 300 ng of lipopolysaccharide (LPS) derived from Gram-negative bacteria in the presence of the compound of formula (1a-1) for 24 hours. The medium in the top chamber was replaced with 300 μl of serum-free medium containing 5 μl of streptoavidin-HRP. After 5 minutes, 20 μl of the medium in the lower chamber was taken and the activity of HRP was measured as absorbance at 450 nm.
To determine the mechanism by which the compound of formula (1a-1) improves permeability, the same experiment was performed by knocking down the SIRT1 protein in the MYSEC cell line.

CCCCCCCCCCCCCC[C@H]1OP(=O)(O)O[C@H]1[C@@H](N)CO.Cl [formula (1a-1), (4S,5R)-4-((S)-1-amino-2-hydroxyethyl)-2-hydroxy-5-tetradecyl-1,3,2-dioxaphosphoran-2-oxide hydrochloride]
red fluorescence for mAβ ([1]; 1 week and 4 weeks after): negligible red fluorescence for mAβ and Tau | expression of amyloid [1]: significantly reduced | proliferation of nerve cells (SH-SY5Y cell lines; 15.6 nM to 500 nM): proliferation of nerve cells increases with increasing concentrations | concentration of maximum proliferative potency (SH-SY5Y cell lines): ~100 nM | deaths after 10 days (C57BL/6 mice): no deaths | survival for 10 days (C57BL/6 mice): more than 80% | concentration increasing SIRT1 expression relative to that of resveratrol (SIRT1; HUVEC EC50 about 10 nM vs known EC50 of resveratrol approximately […] μM): thousands of times lower than that of resveratrol | increase in SIRT1 expression (SIRT1; HUVECs, 10 nM, 100 nM and 1000 nM, 24 hours, FIG. 1): increases the expression of SIRT1 even at a very low concentration of 10 nM | EC50 (SIRT1; Homo sapiens, HUVEC, HUVECs, 24 hours, western blot, read-out: concentration (EC50) that increased the expression of SIRT1 by 50%): ~10 nM | permeability, SIRT1 knockdown ([2]; MYSEC with knockdown of SIRT1 protein, LPS): does not show the effect | permeability ([2]; MYSEC, 300 ng LPS, 24 hours): restores the LPS-induced increased permeability to normal
